# Earlier results in patent publication US20240041838A1, “METHODS AND COMPOSITIONS FOR INHIBITION OF NEUTROPHIL RECRUITMENT IN MYCOCARDIAL ISCHEMIA-REPERFUSION INJURY” (University of Connecticut, priority 2022, published 2024).
# System: I/R-induced ventricular arrhythmia
# Settings: reported; cited from earlier work
smiles,measurement,value
CCN(CC)CCCC(C)Nc1nc(C)cc(Nc2ccc3nc(C)cc(N)c3c2)n1 (stereo not shown) [NSC23766],I/R-induced ventricular arrhythmia,decreased
